1 compound from patent publication US9067894B1, “Compound, composition, and method of activating GIRK potassium channel and use of same for treating conditions of interest” (Vanderbilt University, priority 2013, dated 2015) can be followed below.

The test system of one test is Glutamate (NMDA, PCP). As to the kind of experiment: Radioligand displacement (Ricerca). Format: binding, rat. The conditions noted are these: 10 μM. (In a radioligand displacement assay an active substance lowers the binding of a labelled ligand.)
For another test, the target named is T1, N-Type Ca channel (Rattus norvegicus, UniProt Q02294).
T1 construct: Ricerca
T1 sequence (Q02294 whole entry): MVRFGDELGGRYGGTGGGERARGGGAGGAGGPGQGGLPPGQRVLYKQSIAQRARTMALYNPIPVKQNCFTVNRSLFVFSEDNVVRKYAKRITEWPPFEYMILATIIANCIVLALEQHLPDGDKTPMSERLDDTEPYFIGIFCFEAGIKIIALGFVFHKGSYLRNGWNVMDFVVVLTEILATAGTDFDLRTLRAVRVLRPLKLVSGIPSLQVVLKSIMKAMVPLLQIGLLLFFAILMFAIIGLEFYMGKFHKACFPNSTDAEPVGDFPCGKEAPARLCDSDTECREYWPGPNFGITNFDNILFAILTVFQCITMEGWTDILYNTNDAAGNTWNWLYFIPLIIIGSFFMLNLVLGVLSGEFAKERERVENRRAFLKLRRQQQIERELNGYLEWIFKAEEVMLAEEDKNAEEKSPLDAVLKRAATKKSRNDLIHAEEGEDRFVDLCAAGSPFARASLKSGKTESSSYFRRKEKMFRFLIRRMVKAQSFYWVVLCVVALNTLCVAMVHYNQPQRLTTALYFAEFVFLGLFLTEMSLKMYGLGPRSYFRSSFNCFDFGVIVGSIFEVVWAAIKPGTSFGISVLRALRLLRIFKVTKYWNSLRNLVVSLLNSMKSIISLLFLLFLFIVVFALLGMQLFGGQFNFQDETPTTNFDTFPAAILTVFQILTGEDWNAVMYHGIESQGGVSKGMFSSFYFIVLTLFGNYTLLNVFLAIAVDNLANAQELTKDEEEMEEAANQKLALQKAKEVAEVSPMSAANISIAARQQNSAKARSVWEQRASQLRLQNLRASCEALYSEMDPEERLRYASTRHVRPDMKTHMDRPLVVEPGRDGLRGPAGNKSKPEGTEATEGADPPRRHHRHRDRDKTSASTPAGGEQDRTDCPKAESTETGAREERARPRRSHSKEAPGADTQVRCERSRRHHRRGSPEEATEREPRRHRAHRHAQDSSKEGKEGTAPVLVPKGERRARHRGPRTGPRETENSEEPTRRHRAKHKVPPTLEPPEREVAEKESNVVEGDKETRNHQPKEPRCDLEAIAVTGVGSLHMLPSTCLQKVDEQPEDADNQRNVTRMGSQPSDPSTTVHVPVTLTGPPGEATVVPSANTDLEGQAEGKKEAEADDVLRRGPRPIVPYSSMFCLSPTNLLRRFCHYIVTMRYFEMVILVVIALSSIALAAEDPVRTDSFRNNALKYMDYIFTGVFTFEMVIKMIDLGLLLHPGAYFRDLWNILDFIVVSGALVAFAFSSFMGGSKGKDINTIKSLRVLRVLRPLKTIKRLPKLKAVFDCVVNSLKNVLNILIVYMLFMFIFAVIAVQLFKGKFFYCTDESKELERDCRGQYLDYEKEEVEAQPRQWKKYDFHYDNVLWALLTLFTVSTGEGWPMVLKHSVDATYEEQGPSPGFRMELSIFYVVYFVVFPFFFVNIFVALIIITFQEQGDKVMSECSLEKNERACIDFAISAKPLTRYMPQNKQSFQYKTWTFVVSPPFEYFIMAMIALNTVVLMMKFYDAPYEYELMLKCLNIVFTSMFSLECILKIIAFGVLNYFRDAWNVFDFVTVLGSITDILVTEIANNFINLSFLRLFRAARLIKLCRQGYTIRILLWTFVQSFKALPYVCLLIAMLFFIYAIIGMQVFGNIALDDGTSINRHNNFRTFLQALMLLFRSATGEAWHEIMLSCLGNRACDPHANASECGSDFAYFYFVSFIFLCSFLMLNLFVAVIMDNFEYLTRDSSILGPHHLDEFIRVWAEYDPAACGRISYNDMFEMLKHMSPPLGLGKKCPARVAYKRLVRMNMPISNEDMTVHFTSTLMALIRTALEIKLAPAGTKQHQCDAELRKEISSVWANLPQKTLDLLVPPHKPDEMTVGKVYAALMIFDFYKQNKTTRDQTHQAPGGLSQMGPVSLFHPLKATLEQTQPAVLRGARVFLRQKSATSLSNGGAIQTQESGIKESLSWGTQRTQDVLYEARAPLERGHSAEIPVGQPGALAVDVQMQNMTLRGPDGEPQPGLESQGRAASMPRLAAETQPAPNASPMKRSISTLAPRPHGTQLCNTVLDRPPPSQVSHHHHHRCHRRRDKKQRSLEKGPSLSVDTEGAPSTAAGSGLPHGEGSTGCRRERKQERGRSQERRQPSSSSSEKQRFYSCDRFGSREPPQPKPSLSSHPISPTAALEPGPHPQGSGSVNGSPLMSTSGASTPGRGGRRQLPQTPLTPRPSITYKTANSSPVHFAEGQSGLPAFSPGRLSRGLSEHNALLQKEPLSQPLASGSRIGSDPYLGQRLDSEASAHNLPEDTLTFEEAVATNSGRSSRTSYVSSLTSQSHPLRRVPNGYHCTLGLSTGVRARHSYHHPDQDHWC
The experiment in a line: Radioligand displacement (Ricerca). Format: binding.

A further test deals with T2, GIRK2/3 (Homo sapiens, UniProt P48051+Q92806).
T2 construct: expressed in transfected cells; host or cells: HEK-293
T2 sequence (P48051 1-423): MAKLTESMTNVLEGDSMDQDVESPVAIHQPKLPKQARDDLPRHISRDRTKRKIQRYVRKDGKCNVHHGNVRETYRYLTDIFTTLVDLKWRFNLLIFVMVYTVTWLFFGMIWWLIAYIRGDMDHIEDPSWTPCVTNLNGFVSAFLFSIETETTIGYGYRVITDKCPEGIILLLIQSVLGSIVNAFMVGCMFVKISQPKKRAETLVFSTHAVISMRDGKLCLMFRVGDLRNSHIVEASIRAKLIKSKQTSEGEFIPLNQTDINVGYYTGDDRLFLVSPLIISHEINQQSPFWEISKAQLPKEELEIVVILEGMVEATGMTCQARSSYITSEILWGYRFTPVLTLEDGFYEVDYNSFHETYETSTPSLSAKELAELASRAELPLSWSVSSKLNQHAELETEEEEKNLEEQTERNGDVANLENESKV
T2 sequence (Q92806 1-393): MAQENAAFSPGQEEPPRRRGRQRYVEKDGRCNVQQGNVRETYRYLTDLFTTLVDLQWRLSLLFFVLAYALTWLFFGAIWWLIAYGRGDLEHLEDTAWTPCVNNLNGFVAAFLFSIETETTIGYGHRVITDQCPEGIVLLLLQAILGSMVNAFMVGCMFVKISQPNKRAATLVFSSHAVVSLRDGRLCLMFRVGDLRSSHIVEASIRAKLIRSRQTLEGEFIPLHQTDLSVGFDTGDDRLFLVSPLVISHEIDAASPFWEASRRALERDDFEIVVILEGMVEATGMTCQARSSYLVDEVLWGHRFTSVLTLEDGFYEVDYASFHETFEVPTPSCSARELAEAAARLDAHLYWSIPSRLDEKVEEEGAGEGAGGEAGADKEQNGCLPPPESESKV
As to the kind of experiment: Whole-cell voltage-clamp, GIRK2/3-expressing HEK-293 cells. Format: cell-based. Conditions: cell line GIRK2-3. The text has this:
Cell Line Construction and Cell Culture. HEK-293 cells co-expressing human GIRK1/2 and rat mGlu8 were generated as previously described (Niswender et al., 2008). A HEK-293 cell line (ATCC, Manassas, Va.) expressing human GIRK1 and human GIRK2 was constructed by transfecting HEK-293 cells with GIRK1 and GIRK2 (Origene, Rockville, Md.) cloned into the pBudCE4.1 vector (Life Technologies, Carlsbad, Calif.) using FuGene 6 (Promega, Madison, Wis.) transfection reagent. […]
A single-cell suspension of HEK-293 cells stably transfected with the appropriate ion channels were plated into TC-treated 35 mm polystyrene dishes at ˜15% confluence and incubated overnight in a 5% CO2 cell culture incubator at 37° C. […] Whole cell currents were recorded in 20K extracellular solution at −70 mV using a Pico 1 amplifier (Tecella, Foothill Ranch, Calif.) controlled by WINWCP 4.X (University of Strathclyde, Glasgow, Scotland, UK). […] One day after transfection, cells were plate into 35 mm polystyrene dishes, incubated and recorded as described above. […]
Voltage-clamp data were analyzed by converting current amplitudes to current density by dividing by each cell's membrane capacitance estimated from capacitance compensation. […]

The % Inhibition is the relative decrease from the control value, in per cent. Read a low % Inhibition as little suppression. As a reminder, the inhibition is the percentage by which the read-out fell short of the control. On to `Cc1cc(NC(=O)Nc2ccc(F)c(F)c2)n(-c2ccccc2)n1` [VU0456810, 1-(3,4-difluorophenyl)-3-(3-methyl-1-phenyl-1H-pyrazol-5-yl)urea], for which the “% Inhibition” value in the test with Glutamate (NMDA, PCP) was determined as 1%. This compound gave an inhibition at 10 µM on N-Type Ca channel of 5%. Also, the “EC50 Voltage Clamp” value at GIRK2/3 is listed as “Inactive”.
